Where a SMILES comes first, the peptide text is derived from it. [ ]: non-standard residue; d: D form. The star is where a group is joined. Biotin = O=C1N[C@H]2[C@H](CS[C@H]2CCCCC(=O)*)N1
How the values were obtained:
H929 myeloma cells = assay type: cell-based, human; conditions: H929 cells
Method: H929 cells were treated for 24 hours with varying concentrations of peptide. Cell death was measured by Topro-3 staining and FACS analysis. The IC50 values were obtained from linear regression analysis and an average value was obtained from 3 independent experiments.
Table 4 legend: Structure activity relationship in H929 myeloma cells of cyclic INTEGRIN INTERACTION INHIBITORS derivatives. The minimal bioactive core sequence of INTEGRIN INTERACTION INHIBITORS WSVVM (SEQ ID NO:33) was cyclized using 2 novel reduced amide bond beta turn promoters and KLKLK (SEQ ID NO:34) as the non-recognition sequence. H929 cells were treated with varying concentrations of the indicated peptide for 24 h. Cell viability was determined using Topro-3 staining and FACS analysis after drug treatment. IC50 values were generated from linear regressions generated from the dose response curves (n=mean of 3 independent experiments).
A colony forming assay was used to compare induced cell death in H929 multiple myeloma cells. Cells were treated with integrin interaction inhibitors, shown in FIG. 5 and Table 4, and cell death was measured following 24 hour peptide treatment by TOPRO-3 staining and FACS analysis.

[1] = target: T1, full length recombinant human CD44 (Homo sapiens, UniProt P16070); test: ELISA based binding assay, biotin-HYD1 on NeutrAvidin coated wells; conditions: biotin as control
T1 construct: purchased Abnova
Text: FIG. 41. […] A primary CD44 antibody and HRP conjugated secondary antibody and chemiluminescence detection was used to quantify rCD44 binding to immobilized biotin-HYD1.
FIG. 51. ELISA based binding assay confirms that biotin-HYD1 binds to full length recombinant human CD44 in a concentration dependent manner. Biotin was bound to NeutrAvidin coated wells to control for non-specific binding.
The inventors used biotin-HYD1 as bait to pulldown binding complexes contained within membrane extracts of H929 MM cells. The pull down assay was directly coupled with an unbiased Mass-Spec analysis to identify HYD1 binding partners. […] NeutrAvidin beads were used to reduce non-specific binding. […] The inventors next determined whether α4 integrin could be detected by western blot analysis. […] To determine whether […] was indeed a direct binding partner of […] the inventors used recombinant CD44 and an ELISA as a readout of binding. […]
The inventors performed a total membrane binding assay with biotin conjugated HYD1 and NeutrAvidin beads on NCI-H929 and U266 MM cells. Samples were then loaded on an SDS-PAGE gel, trypsin digested, and analyzed by Liquid Chromatography-Mass Spectrometry/Mass Spectrometry (LC-MS/MS). […] For more quantitative binding affinity analysis we produced the human globular ectodomain of CD44 comprising of amino acids 20-178. […]

[2] = tested on: CD44 and α4 integrin in membrane extracts; test: Pull-down of membrane extract with biotin-conjugated peptide on NeutrAvidin beads, western blot / LC-MS/MS; assay type: binding; conditions: H929 cells, 30 μg membrane extract, western blot pan-CD44 antibody
Method: FIG. 39. […] Thirty micrograms of membrane extract was incubated with either biotin or biotin-HYD1 bound NeutrAvidin beads. The first lane is 30 μg of membrane extract only. CD44 was detected by western blot analysis using a pan-CD44 antibody.
FIGS. 40A-40B. […] Biotin-HYD1 or biotin was immobilized to NeutraAvidin beads prior to incubation with 150 μg of membrane extract. The blot was initially probed for α4 integrin and subsequently stripped and re-probed with CD44 antibody.
FIG. 65. […] Total cell membranes were isolated from U937 or HL-60 cells. Membrane lysate (150 μg) was incubated with 500 μg of biotin or biotin-MTI-101 bound to NeutrAvidin beads. […]
The inventors used biotin-HYD1 as bait to pulldown binding complexes contained within membrane extracts of H929 MM cells. […] The inventors next determined whether α4 integrin could be detected by western blot analysis. […] To determine whether […] was indeed a direct binding partner of […] the inventors used recombinant CD44 and an ELISA as a readout of binding. […]
We performed a total membrane binding assay with biotin conjugated HYD1 and NeutrAvidin beads on NCI-H929 and U266 MM cells. Samples were then loaded on an SDS-PAGE gel and analyzed by LC-MS/MS. The adhesion receptor CD44 was determined to be among the adhesion receptors that had the most peptide match hits and was confirmed as a valid hit via Western Blot analysis. […]

T1 sequence (P16070 21-699 isoform P16070-4 limits assumed): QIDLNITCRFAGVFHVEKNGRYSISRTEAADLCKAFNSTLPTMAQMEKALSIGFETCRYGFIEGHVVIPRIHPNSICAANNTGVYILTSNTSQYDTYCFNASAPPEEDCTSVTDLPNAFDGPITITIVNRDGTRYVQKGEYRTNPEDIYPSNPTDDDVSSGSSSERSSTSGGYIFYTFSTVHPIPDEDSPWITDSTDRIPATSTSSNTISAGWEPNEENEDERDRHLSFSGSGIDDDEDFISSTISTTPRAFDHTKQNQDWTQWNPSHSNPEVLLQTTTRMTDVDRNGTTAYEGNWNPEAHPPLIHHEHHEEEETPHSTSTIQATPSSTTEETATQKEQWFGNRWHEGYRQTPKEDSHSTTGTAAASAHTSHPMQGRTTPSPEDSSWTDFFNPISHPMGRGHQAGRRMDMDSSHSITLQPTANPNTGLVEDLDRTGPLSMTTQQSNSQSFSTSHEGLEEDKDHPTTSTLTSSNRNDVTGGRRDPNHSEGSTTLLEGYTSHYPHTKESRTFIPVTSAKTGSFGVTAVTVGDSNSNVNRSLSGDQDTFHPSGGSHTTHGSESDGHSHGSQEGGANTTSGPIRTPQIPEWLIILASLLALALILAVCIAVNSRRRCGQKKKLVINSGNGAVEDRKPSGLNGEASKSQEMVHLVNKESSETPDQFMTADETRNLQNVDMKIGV

## CC[C@@H](C)[C@@H](NC(=O)[C@@H](CCCCN)NC(=O)CCCC[C@@H]1SC[C@@H]2NC(=O)N[C@@H]21)C(=O)N[C@H](CCCCN)C(=O)N[C@H](CCSC)C(=O)N[C@@H](C(=O)N[C@@H](C(=O)N[C@H](CO)C(=O)N[C@H](Cc1c[nH]c2ccccc12)C(=O)N[C@H](CCCCN)C(=O)NCC(=O)O)[C@H](C)CC)C(C)C [biotin-HYD1] (Biotin-[dK][dI][dK][dM][dV][dI][dS][dW][dK]G-OH; N-terminus and C-terminus assumed)
H929 myeloma cells
  IC50 of biotinylated peptide relative to HYD1: slightly decreased
[1]
  binding to recombinant CD44 in ELISA: binds recombinant CD44 in a direct ELISA
[1]; listed as biotin conjugated HYD1
  binding to recombinant CD44 in ELISA: CD44 bound to biotin conjugated HYD1 in a concentration dependent manner
[2]
  pull-down of binding partners from H929 membrane extract: interacts with CD44 in H929 cells
